Tests used:
[1] = test system: Haemonchus contortus L3; test: microbe, parasite or virus in culture; format: cell-based; conditions: for minimal effective concentration: Haemonchus contortus, 96 h, read-out: HcL3 Minimal Effective Concentration (MEC)
[2] = test system: D. immitis microfilariae; test: Dirofilaria immitis, microfilariae (DiMF) in vitro motility assay; format: cell-based; conditions: for minimal effective concentration: Dirofilaria immitis, 72 h, read-out: DiMF minimally effective dose (MEC)
[3] = test system: Trichostrongylus colubriformis; test: Jird efficacy model; format: in vivo; conditions: for inhibition in vivo at 10 mg/kg: Trichostrongylus colubriformis, sc, 96 h, read-out: Jird % (percentage efficacy)

| SMILES | minimal effective concentration [1] [µM] | minimal effective concentration [2] [µM] | inhibition in vivo at 10 mg/kg [3] [%] | HcL3 Minimal Effective Concentration (MEC) [1] [µM] | DiMF minimally effective dose (MEC) ([2]; decrease in microfilariae motility by subjective visual assessment, observed at 72 hours) [µM] | Jird % (percentage efficacy) ([3]; Mongolian gerbil (jird) infected with T. colubriformis, 10 mg/kg subcutaneous, worm count approximately four days after dosing) [%] |
| --- | --- | --- | --- | --- | --- | --- |
| N#Cc1ccc2c3c(n(C(=O)NCc4ccnc(Cl)c4)c2c1)CCN(C/C=C/c1cc(F)c(Cl)c(F)c1)C3 [Example 1, (E)-2-(3-(4-chloro-3,5-difluorophenyl)allyl)-N-((2-chloropyridin-4-yl)methyl)-7-cyano-1,2,3,4-tetrahydro-5H-pyrido[4,3-b]indole-5-carboxamide] | 0.2 | 0.2 | 100 |  |  |  |
| N#Cc1ccc2c3c(n(C(=O)NCc4ccnc(Cl)c4)c2c1)CCN(C/C=C/c1ccc(Cl)cc1Cl)C3 [Example 3, (E)-N-[(2-chloro-4-pyridyl)methyl]-7-cyano-2-[(E)-3-(2,4-dichlorophenyl)allyl]-3,4-dihydro-1H-pyrido[4,3-b]indole-5-carboxamide] |  |  |  | 1.0 | 18.2 | 99 |
| O=C(NCc1ccnc(Cl)c1)n1c2c(c3ccc(C(F)(F)F)cc31)CN(C/C=C/c1ccc(Cl)cc1)CC2 [Example 156, (E)-2-(3-(4-chlorophenyl)allyl)-N-((2-chloropyridin-4-yl)methyl)-7-(trifluoromethyl)-1,2,3,4-tetrahydro-5H-pyrido[4,3-b]indole-5-carboxamide] | 0.5 | 33 | 99 |  |  |  |
| O=C(NCc1ccnc(F)c1)n1c2c(c3cc(F)c(Cl)cc31)CN(C/C=C/c1ccc(F)c(F)c1)CC2 [Example 314, (E)-7-chloro-2-(3-(3,4-difluorophenyl)allyl)-8-fluoro-N-((2-fluoropyridin-4-yl)methyl)-1,2,3,4-tetrahydro-5H-pyrido[4,3-b]indole-5-carboxamide] | 1 | 3.3 | 100 |  |  |  |
| N#Cc1ccc2c(c1)c1c(n2C(=O)NCc2ccnc(F)c2)CCN(C/C=C/c2ccc(F)c(Br)c2)C1 [Example 109, (E)-2-(3-(3-bromo-4-fluorophenyl)allyl)-8-cyano-N-((2-fluoropyridin-4-yl)methyl)-1,2,3,4-tetrahydro-5H-pyrido[4,3-b]indole-5-carboxamide] | 1.22 | 18.2 | 99 |  |  |  |
| O=C(NCc1ccnc(F)c1)n1c2c(c3ccc(Cl)cc31)CN(C/C=C/c1ccc(F)c(F)c1)CC2 [Example 228, (E)-7-chloro-2-(3-(3,4-difluorophenyl)allyl)-N-((2-fluoropyridin-4-yl)methyl)-1,2,3,4-tetrahydro-5H-pyrido[4,3-b]indole-5-carboxamide] | 1.8 | 3.3 | 98 |  |  |  |
| N#Cc1cc(/C=C/CN2CCc3c(c4ccc(OC(F)(F)F)cc4n3C(=O)NCc3ccnc(Cl)c3)C2)ccc1F [Example 344, (E)-N-((2-chloropyridin-4-yl)methyl)-2-(3-(3-cyano-4-fluorophenyl)allyl)-7-(trifluoromethoxy)-1,2,3,4-tetrahydro-5H-pyrido[4,3-b]indole-5-carboxamide] | 0.5 | 10 | 100 |  |  |  |
| N#Cc1ccc2c(c1)c1c(n2C(=O)NCc2ccnc(F)c2)CCN(C/C=C/c2cc(Br)ccc2F)C1 [Example 108, (E)-2-(3-(5-bromo-2-fluorophenyl)allyl)-8-cyano-N-((2-fluoropyridin-4-yl)methyl)-1,2,3,4-tetrahydro-5H-pyrido[4,3-b]indole-5-carboxamide] | 2.4 | 3.2 | 100 |  |  |  |
| O=C(NCc1ccnc(Cl)c1)n1c2c(c3cc(Cl)c(Cl)cc31)CN(C/C=C/c1ccc(F)cc1)CC2 [Example 282, (E)-7,8-dichloro-N-((2-chloropyridin-4-yl)methyl)-2-(3-(4-fluorophenyl)allyl)-1,2,3,4-tetrahydro-5H-pyrido[4,3-b]indole-5-carboxamide] | 0.3 | 3.3 | 100 |  |  |  |
| O=C(NCc1ccnc(Cl)c1)n1c2c(c3cc(F)c(Cl)cc31)CN(C/C=C/c1ccc(F)cc1)CC2 [Example 306, (E)-7-chloro-N-((2-chloropyridin-4-yl)methyl)-8-fluoro-2-(3-(4-fluorophenyl)allyl)-1,2,3,4-tetrahydro-5H-pyrido[4,3-b]indole-5-carboxamide] | 0.5 | 12.7 | 98 |  |  |  |
| N#Cc1ccc2c3c(n(C(=O)NCc4ccnc(Cl)c4)c2c1)CCN(C/C=C/c1c(F)cc(Cl)cc1F)C3 [Example 6, (E)-2-(3-(4-chloro-2,6-difluorophenyl)allyl)-N-((2-chloropyridin-4-yl)methyl)-7-cyano-1,2,3,4-tetrahydro-5H-pyrido[4,3-b]indole-5-carboxamide] | 2.4 | 18.2 | 99 |  |  |  |
| O=C(NCc1ccnc(Cl)c1)n1c2c(c3ccc(OC(F)(F)F)cc31)CN(C/C=C/c1ccc(F)c(F)c1)CC2 [Example 349, (E)-N-((2-chloropyridin-4-yl)methyl)-2-(3-(3,4-difluorophenyl)allyl)-7-(trifluoromethoxy)-1,2,3,4-tetrahydro-5H-pyrido[4,3-b]indole-5-carboxamide] | 1 | 10 | 99 |  |  |  |
| O=C(NCc1ccnc(Cl)c1)n1c2c(c3cc(N4CCOCC4)ccc31)CN(C/C=C/c1ccc(Cl)cc1)CC2 [Example 505, (E)-2-(3-(4-chlorophenyl)allyl)-N-((2-chloropyridin-4-yl)methyl)-8-morpholino-1,2,3,4-tetrahydro-5H-pyrido[4,3-b]indole-5-carboxamide] | 10 | 13.5 | 100 |  |  |  |
| O=C(NCc1ccnc(F)c1)n1c2c(c3ccc(OC(F)(F)F)cc31)CN(C/C=C/c1ccc(F)cc1F)CC2 [Example 374, (E)-2-(3-(2,4-difluorophenyl)allyl)-N-((2-fluoropyridin-4-yl)methyl)-7-(trifluoromethoxy)-1,2,3,4-tetrahydro-5H-pyrido[4,3-b]indole-5-carboxamide] | 5.7 | 5.7 | 72 |  |  |  |
| O=C(NCc1ccnc(Cl)c1)n1c2c(c3cc4c(cc31)COC4)CN(C/C=C/c1ccc(F)cc1)CC2 [Example 481, (E)-N-((2-chloropyridin-4-yl)methyl)-8-(3-(4-fluorophenyl)allyl)-1,3,6,7,8,9-hexahydro-5H-furo[3,4-f]pyrido[4,3-b]indole-5-carboxamide] | 0.3 | 3.3 | 99 |  |  |  |
| O=C(NCc1ccnc(F)c1)n1c2c(c3cc(C(F)(F)F)ccc31)CN(C/C=C/c1ccc(F)c(Cl)c1)CC2 [Example 418, (E)-2-(3-(3-chloro-4-fluorophenyl)allyl)-N-((2-fluoropyridin-4-yl)methyl)-8-(trifluoromethyl)-1,2,3,4-tetrahydro-5H-pyrido[4,3-b]indole-5-carboxamide] | 3.3 | 18.2 | 95 |  |  |  |

Source: patent US10570129B2 (Zoetis Services LLC, priority 2015, dated 2020)
